Assay [1] concerns the target T1, MAGL (Mus musculus (Mouse), UniProt O35678). As to the kind of experiment: Mouse brain proteomes from inhibitor treated mice (oral gavage, brain MAGL activity 4 h after administration). The note with it: 5 mg/kg oral gavage. It counts as in vivo. On the procedure: Preparation of Mouse Brain Proteomes from Inhibitor Treated Mice.
Inhibitors were administered to wild-type C57B1/6J by oral gavage in a vehicle of polyethylene glycol.

Assay [2] addresses T1, MAGL. As to the kind of experiment: In vitro competitive activity-based protein profiling, mouse brain proteome. It counts as biochemical. The conditions noted are these: for inhibition at 1 µM: mouse; for IC50: mouse brain.
Assay [3] has as its target MAGL (Homo sapiens (Human), UniProt Q99685). Nature of the assay: In vitro competitive activity-based protein profiling (gel-based, FP-Rh or HT-01 probe). The note with it: for IC50: read-out: MAGL Human PC3 (IC50). It counts as biochemical. On the procedure: In Vitro Competitive Activity-Based Protein Profiling.
Proteomes (human prefrontal cortex or cell membrane fractions) (50 μL, 1.0 mg/mL total protein concentration) were preincubated with varying concentrations of inhibitors at 37° C. After 30 min, FP-Rh or HT-01 (1.0 μL, 50 μM in DMSO) was added and the mixture was incubated for another 30 min at room temperature. Reactions were quenched with SDS loading buffer (15 μL—4×) and run on SDS-PAGE.

Setting [4] is: human PFC (prefrontal cortex), read-out: MAGL % Inhibition at 1 μM (human PFC).
Where [5] appears, read: human PC3, read-out: MAGL % Inhibition at 1 μM (human PC3).

Where two headings read alike, the source gives them in different places.

For orientation: inhibition means the relative decrease from the control value, in per cent. What is called IC50 is the concentration at which inhibition is half-maximal.

Sequence of MAGL (Homo sapiens (Human), UniProt Q99685) (Q99685 whole entry): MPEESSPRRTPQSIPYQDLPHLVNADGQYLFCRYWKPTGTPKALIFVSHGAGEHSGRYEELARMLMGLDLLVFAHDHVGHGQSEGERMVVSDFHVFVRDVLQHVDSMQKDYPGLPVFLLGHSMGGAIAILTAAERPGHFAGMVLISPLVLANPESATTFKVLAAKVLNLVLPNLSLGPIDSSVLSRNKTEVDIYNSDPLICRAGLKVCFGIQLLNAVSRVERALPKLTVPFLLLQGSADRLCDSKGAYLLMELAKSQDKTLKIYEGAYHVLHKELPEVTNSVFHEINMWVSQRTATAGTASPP
T1 sequence (O35678 whole entry): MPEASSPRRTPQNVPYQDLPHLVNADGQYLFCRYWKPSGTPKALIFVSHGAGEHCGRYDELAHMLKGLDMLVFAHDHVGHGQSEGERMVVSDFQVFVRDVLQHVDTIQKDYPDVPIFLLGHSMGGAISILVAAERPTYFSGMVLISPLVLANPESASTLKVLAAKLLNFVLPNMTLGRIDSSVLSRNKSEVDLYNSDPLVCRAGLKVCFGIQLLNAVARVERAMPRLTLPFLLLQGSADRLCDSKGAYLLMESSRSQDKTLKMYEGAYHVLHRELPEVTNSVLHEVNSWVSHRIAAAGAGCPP

Take `Cc1c(CN2CCCC23CCN(C(=O)OC(C(F)(F)F)C(F)(F)F)CC3)[nH]c2ccc(F)cc12` [Example 58, 1,1,1,3,3,3-Hexafluoropropan-2-yl 1-((5-fluoro-3-methyl-1H-indol-2-yl)methyl)-1,8-diazaspiro[4.5] decane-8-carboxylate]: the “MAGL % Inhibition at 5 mg/kg (Mouse)” value in assay [1] was “### (% inhibition is greater than or equal to 75%)”. In assay [2], this compound displayed an inhibition at 1 µM of more than 75% and an IC50 of less than 100 nM. For the same compound, the IC50 in assay [3] (human PC3) was less than 100 nM.
`O=C(OC(C(F)(F)F)C(F)(F)F)N1CCC2(CCCN2C(=O)c2cc3ccc(Cl)cc3s2)CC1` [Example 60, 1,1,1,3,3,3-Hexafluoropropan-2-yl 1-(6-chlorobenzo[b]thiophene-2-carbonyl)-1,8-diazaspiro[4.5] decane-8-carboxylate]: the “MAGL % Inhibition at 5 mg/kg (Mouse)” value in assay [1] is on record as “### (% inhibition is greater than or equal to 75%)”. Also, the inhibition at 1 µM in assay [2] is more than 75%. The IC50 in assay [2] and in assay [3] (human PC3) was less than 100 nM in each case.
For the compound `CN(Cc1cc2cc(Cl)ccc2s1)C1(C)CCN(C(=O)OC(C(F)(F)F)C(F)(F)F)CC1` [Example 62, 1,1,1,3,3,3-Hexafluoropropan-2-yl 4-(((5-chlorobenzo[b]thiophen-2-yl)methyl)(methyl)amino)-4-methylpiperidine-1-carboxylate], the “MAGL % Inhibition at 5 mg/kg (Mouse)” value in assay [1] was “### (% inhibition is greater than or equal to 75%)”. The compound further registered an inhibition at 1 µM in assay [2] of more than 75%. The IC50 in assay [2] and in assay [3] (human PC3) was less than 100 nM each time.
For `Cc1cc(C)c2[nH]c(C(=O)N3CCCC34CCN(C(=O)OC(C(F)(F)F)C(F)(F)F)CC4)c(C)c2c1` [Example 63, 1,1,1,3,3,3-Hexafluoropropan-2-yl 1-(3,5,7-trimethyl-1H-indole-2-carbonyl)-1,8-diazaspiro[4.5] decane-8-carboxylate], the “MAGL % Inhibition at 5 mg/kg (Mouse)” value in assay [1] is on record as “### (% inhibition is greater than or equal to 75%)”. In assay [2], this compound yielded an inhibition at 1 µM of more than 75% and an IC50 of less than 100 nM. For the same compound, the 50% inhibitory concentration (IC50) in assay [3] (human PC3) was less than 100 nM.
With `Cn1cc(Cl)c(C(=O)N2CCCC23CCN(C(=O)OC(C(F)(F)F)C(F)(F)F)CC3)n1` [Example 120, 1,1,1,3,3,3-Hexafluoropropan-2-yl 1-(4-chloro-1-methyl-1H-pyrazole-3-carbonyl)-1,8-diazaspiro[4.5] decane-8-carboxylate], the “MAGL % Inhibition at 5 mg/kg (Mouse)” value in assay [1] is on record as “### (% inhibition is greater than or equal to 75%)”. Besides, the inhibition at 1 µM in assay [2] and in assay [3] (setting [4]) was more than 75% in each case. Moreover, the IC50 in assay [3] (human PC3) was less than 100 nM.
Turning to `O=C(O)C1CCN(c2nc(C(F)(F)F)ccc2CN2CCCC23CCN(C(=O)OC(C(F)(F)F)C(F)(F)F)CC3)CC1` [Example 123, 1-(3-((8-(((1,1,1,3,3,3-Hexafluoropropan-2-yl)oxy)carbonyl)-1,8-diazaspiro[4.5]decan-1-yl)methyl)-6-(trifluoromethyl)pyridin-2-yl)piperidine-4-carboxylic acid], the “MAGL % Inhibition at 5 mg/kg (Mouse)” value in assay [1] is given as “### (% inhibition is greater than or equal to 75%)”. Further, the inhibition at 1 µM in assay [2] and in assay [3] (setting [4]) was more than 75% in each case. Also, the IC50 in assay [3] (human PC3) is less than 100 nM.
`Cc1nc2ccc(Cl)nn2c1C(=O)N1CCCC12CCN(C(=O)OC(C(F)(F)F)C(F)(F)F)CC2` [Example 142, 1,1,1,3,3,3-Hexafluoropropan-2-yl 1-(6-chloro-2-methylimidazo[1,2-b]pyridazine-3-carbonyl)-1,8-diazaspiro[4.5] decane-8-carboxylate]: the “MAGL % Inhibition at 5 mg/kg (Mouse)” value in assay [1] is “### (% inhibition is greater than or equal to 75%)”. Besides, the inhibition at 1 µM in assay [2], in assay [3] (setting [5]) and in assay [3] (setting [4]) was more than 75% in each case. Also, in assay [3] (human PC3), the IC50 was less than 100 nM.
Take `Cc1nc2cccnn2c1C(=O)N1CCCC12CCN(C(=O)OC(C(F)(F)F)C(F)(F)F)CC2` [Example 143, 1,1,1,3,3,3-Hexafluoropropan-2-yl 1-(2-methyl-imidazo[1,2-b]pyridazine-3-carbonyl)-1,8-diazaspiro[4.5] decane-8-carboxylate]: in assay [1], the “MAGL % Inhibition at 5 mg/kg (Mouse)” value is on record as “### (% inhibition is greater than or equal to 75%)”. For the same compound, the inhibition at 1 µM in assay [2], in assay [3] (setting [5]) and in assay [3] (setting [4]) was more than 75% each time. Also, the IC50 in assay [3] (human PC3) was less than 100 nM.
With `O=C(OC(C(F)(F)F)C(F)(F)F)N1CCC2(CCCN2C(=O)c2cnn3c2CCCC3)CC1` [Example 148, 1.1,1,3,3,3-Hexafluoropropan-2-yl 1-(4,5,6,7-tetrahydropyrazolo [1,5-a]pyridine-3-carbonyl)-1,8-diazaspiro[4.5] decane-8-carboxylate], the “MAGL % Inhibition at 5 mg/kg (Mouse)” value in assay [1] is on record as “### (% inhibition is greater than or equal to 75%)”. Also, the inhibition at 1 µM in assay [2], in assay [3] (setting [5]) and in assay [3] (setting [4]) was more than 75% throughout. Moreover, the IC50 in assay [3] (human PC3) was less than 100 nM.
For the compound `O=C(OC(C(F)(F)F)C(F)(F)F)N1CCC2(CCCN2C(=O)c2cc3nc(Cl)ccn3n2)CC1` [Example 151, 1,1,1,3,3,3-Hexafluoropropan-2-yl 1-(5-chloropyrazolo[1,5-a]pyrimidine-2-carbonyl)-1,8-diazaspiro[4.5] decane-8-carboxylate], the “MAGL % Inhibition at 5 mg/kg (Mouse)” value in assay [1] was “## (% inhibition is less than 75% and greater than 25%)”. Further, the inhibition at 1 µM in assay [2], in assay [3] (setting [5]) and in assay [3] (setting [4]) was more than 75% in each case.
For the compound `O=C(OC(C(F)(F)F)C(F)(F)F)N1CCC2(CCCN2C(=O)c2cn3c(n2)CN(CC2CC2)CC3)CC1` [Example 154, 1,1,1,3,3,3-Hexafluoropropan-2-yl 1-(7-(cyclopropylmethyl)-5,6,7,8-tetrahydroimidazo[1,2-a]pyrazine-2-carbonyl)-1,8-diazaspiro[4.5] decane-8-carboxylate], the “MAGL % Inhibition at 5 mg/kg (Mouse)” value in assay [1] is recorded as “### (% inhibition is greater than or equal to 75%)”. The inhibition at 1 µM in assay [2], in assay [3] (setting [5]) and in assay [3] (setting [4]) was more than 75% each time. The IC50 in assay [3] (human PC3) is less than 100 nM.
On to `O=C(OC(C(F)(F)F)C(F)(F)F)N1CCC2(CCCN2C(=O)c2cc3n(n2)CCN(C2CC2)C3)CC1` [Example 155, 1,1,1,3,3,3-Hexafluoropropan-2-yl 1-(5-cyclopropyl-4,5,6,7-tetrahydropyrazolo [1,5-a]pyrazine-2-carbonyl)-1,8-diazaspiro[4.5] decane-8-carboxylate], for which the “MAGL % Inhibition at 5 mg/kg (Mouse)” value in assay [1] is “### (% inhibition is greater than or equal to 75%)”. For the same compound, the inhibition at 1 µM in assay [2], in assay [3] (setting [5]) and in assay [3] (setting [4]) was more than 75% each time. For the same compound, the IC50 in assay [3] (human PC3) is less than 100 nM.
For `O=C(OC(C(F)(F)F)C(F)(F)F)N1CCC2(CCCN2C(=O)c2cn3c(n2)CN(C2COC2)CC3)CC1` [Example 161, 1.1,1,3,3,3-Hexafluoropropan-2-yl 1-(7-(oxetan-3-yl)-5,6,7,8-tetrahydroimidazo [1,2-a]pyrazine-2-carbonyl)-1,8-diazaspiro[4.5] decane-8-carboxylate], the “MAGL % Inhibition at 5 mg/kg (Mouse)” value in assay [1] is “## (% inhibition is less than 75% and greater than 25%)”. Moreover, the inhibition at 1 µM in assay [2] and in assay [3] (setting [5]) was more than 75% each time. In addition, the IC50 in assay [3] (human PC3) was less than 100 nM.
